Measured values published in patent US9233965B2, “3,4-dihydropyrrolo[1,2-A]pyrazine-2,8(1H)-dicarboxamide derivatives, preparation thereof and therapeutic use thereof for diseases involving casein kinase 1 epsilon and/or casein kinase 1 delta” (SANOFI, priority 2010, dated 2016).

Target: casein kinase 1 epsilon (CK1 epsilon) (Homo sapiens (Human), UniProt P49674)
Test: Test A: inhibitory activity on CK1 epsilon, casein phosphorylation assay on ATP-33P filter plate
Assay type: biochemical
Conditions: IC50 values or IC50 ranges (result of several experiments), ATP 10 μM final
Description: The capacity of the compounds of the invention to inhibit the phosphorylation of casein by casein kinase 1 epsilon and/or delta may be evaluated according to the procedures described in document US 2005/0 131 012.
Test A: Inhibitory Activity on CK1 Epsilon Measured by Assay on an ATP-^33P Filter Plate
The effect of the compounds on inhibition of the phosphorylation of casein by the enzyme casein kinase 1 epsilon (CK1 epsilon) is measured, using a casein assay via filtration of ATP-^33P in vitro.
Casein kinase 1 epsilon (0.58 mg/ml) is obtained via fermentation and purification processes performed according to methods that are well known to those skilled in the art, or may also be obtained from Invitrogen Corporation™ (human CK1 epsilon).
The compounds are tested at five different concentrations so as to generate IC50 values, i.e. the concentration at which a compound is capable of inhibiting the enzymatic activity by 50%, or alternatively the percentage of inhibition at a concentration of 10 micromolar.
“U”-bottomed Falcon plates are prepared by placing 5 μL of solutions of the compounds according to the invention at concentrations of 10, 1, 0.1, 0.01 or 0.001 μM in different wells. The solutions of the compounds according to the invention at these various concentrations are prepared by diluting in a test buffer (Tris 50 mM pH 7.5, MgCl2 […], DTT 2 mM and EGTA 1 mM) a stock solution in DMSO at a concentration of 10 mM. Next, 5 μL of dephosphorylated casein are added to a final concentration of 0.2 μg/μL, 20 μL of CK1 epsilon to a final concentration of 3 ng/μL, and 20 μL of ATP-^33P to a final concentration of 0.02 μCi/μL mixed with cold ATP (10 μM final—approximately 2×10^6 CPM per well). The final total test volume per well is equal to 50 μL.
The “U”-bottomed Falcon® test plate mentioned above is vortexed, and then incubated at room temperature for 2 hours. After 2 hours the reaction is stopped by adding an ice-cold solution of 65 μL of cold ATP (2 mM) prepared in test buffer.
100 μL of the reaction mixture are then transferred from the “U”-bottomed Falcon® plate into Millipore® MAPH filter plates, preimpregnated with 25 μL of ice-cold 100% TCA.
The Millipore MAPH filter plates are agitated gently and are left to stand at room temperature for at least 30 minutes to precipitate the proteins.
After 30 minutes, the filter plates are sequentially washed and filtered with 2×150 μL of 20% TCA, 2×150 μL of 10% TCA and 2×150 μL of 5% TCA (6 washes in total per plate/900 μL per well).
The plates are left to dry overnight at room temperature. Next, 40 μL of Microscint-20 Packard® scintillation liquid are added per well and the plates are closed in a leaktight manner. The radiation emitted by each well is then measured for 2 minutes in a TopCount NXT Packard® scintillation counter, in which the values of CPM/well are measured.
The percentage inhibition of the capacity of the enzyme to phosphorylate the substrate (casein) is determined for each concentration of test compound. These inhibition data expressed as percentages are used to calculate the IC50 value for each compound compared with the controls.
The kinetic studies determined the KM value for ATP as being 21 μM in this test system.
Table 2 below gives the IC50 values or the IC50 inhibition ranges (result of several experiments) for the phosphorylation of Casein Kinase 1 Epsilon for a number of compounds according to the invention.

Chain of casein kinase 1 epsilon (CK1 epsilon) (P49674 whole entry): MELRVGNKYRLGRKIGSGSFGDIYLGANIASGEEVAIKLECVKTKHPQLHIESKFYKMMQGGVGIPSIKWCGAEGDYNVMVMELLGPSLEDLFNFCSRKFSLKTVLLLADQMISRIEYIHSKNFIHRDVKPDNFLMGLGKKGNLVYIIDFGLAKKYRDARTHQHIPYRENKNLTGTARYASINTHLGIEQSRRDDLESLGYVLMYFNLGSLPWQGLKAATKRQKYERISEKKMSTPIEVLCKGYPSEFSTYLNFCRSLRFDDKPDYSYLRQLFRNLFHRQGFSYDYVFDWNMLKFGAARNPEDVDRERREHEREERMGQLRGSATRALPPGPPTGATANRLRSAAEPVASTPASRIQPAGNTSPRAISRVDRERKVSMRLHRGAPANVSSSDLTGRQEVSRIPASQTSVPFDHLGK

Row | Structure (SMILES) | IC50 [nM]
1 | CC(C)(C)NC(=O)N1CCn2c(c(C(N)=O)c(-c3ccc(-n4cccn4)cc3)c2C2CC2)C1 [Compound 31, N^2-tert-butyl-6-cyclo-propyl-7-[4-(1H-pyrazol-1-yl)phenyl]-3,4-dihydropyrrolo[1,2-a]pyrazine-2,8(1H)-dicarboxamide] | 5 to 29
2 | CON(C)C(=O)c1ccc(-c2c(C(N)=O)c3n(c2C2CC2)CCN(C(=O)NC(C)(C)C)C3)cc1 [Compound 20, N^2-tert-butyl-6-cyclo-propyl-7-{4-[methoxy(methyl)carbamoyl]phenyl}-3,4-dihydropyrrolo[1,2-a]pyrazine-2,8(1H)-dicarboxamide] | 620
3 | CC(C)(C)NC(=O)N1CCn2c(c(C(N)=O)c(-c3cccc(-n4cccn4)c3)c2C2CC2)C1 [Compound 27, N^2-tert-butyl-6-cyclo-propyl-7-[3-(1H-pyrazol-1-yl)phenyl]-3,4-dihydropyrrolo[1,2-a]pyrazine-2,8(1H)-dicarboxamide] | 23
4 | CC(C)(C)NC(=O)N1CCn2c(c(C(N)=O)c(-c3ccc(C(F)(F)F)cc3)c2C2CC2)C1 [Compound 24, N^2-tert-butyl-6-cyclo-propyl-7-[4-(trifluoromethyl)phenyl]-3,4-dihydropyrrolo[1,2-a]pyrazine-2,8(1H)-dicarboxamide] | 84
5 | CC(C)(C)CCNC(=O)N1CCn2c(Cl)c(-c3ccccc3)c(C(N)=O)c2C1 [Compound 72, 6-chloro-N^2-(3,3-dimethylbutyl)-7-phenyl-3,4-dihydropyrrolo[1,2-a]pyrazine-2,8(1H)-dicarboxamide] | 1 to 17
6 | CC(C)(C)NC(=O)N1CCn2c(c(C(N)=O)c(-c3ccc(C(=O)NC4CC4)cc3)c2C2CC2)C1 [Compound 18, N^2-tert-butyl-6-cyclo-propyl-7-[4-(cyclo-propylcarbamoyl)phenyl]-3,4-dihydropyrrolo[1,2-a]pyrazine-2,8(1H)-dicarboxamide] | 963
7 | CC(C)(C)NC(=O)N1CCn2c(c(C(N)=O)c(-c3ccc(NS(C)(=O)=O)cc3)c2C2CC2)C1 [Compound 29, N^2-tert-butyl-6-cyclo-propyl-7-{4-[(methylsulfonyl)amino]phenyl}-3,4-dihydropyrrolo[1,2-a]pyrazine-2,8(1H)-dicarboxamide] | 532
8 | Cc1c(-c2ccc(Oc3ccccc3)cc2)c(C(N)=O)c2n1CCN(C(=O)NC(C)(C)C)C2 [Compound 5, N^2-tert-butyl-6-methyl-7-(4-phenoxyphenyl)-3,4-dihydropyrrolo[1,2-a]pyrazine-2,8(1H)-dicarboxamide] | 34 to 78
9 | Cc1cccc(-c2c(C(N)=O)c3n(c2C2CC2)CCN(C(=O)NC(C)(C)C)C3)c1 [Compound 11, N^2-tert-butyl-6-cyclo-propyl-7-(3-methylphenyl)-3,4-dihydropyrrolo[1,2-a]pyrazine-2,8(1H)-dicarboxamide] | 3 to 6
10 | NC(=O)c1c(-c2cccc(F)c2)c(Cl)n2c1CN(C(=O)NC1CCC(O)(C(F)(F)F)CC1)CC2 (stereo not drawn) [Compound 85, trans-6-chloro-7-(3-fluorophenyl)-N^2-(4-hydroxy-4-trifluoromethyl-cyclo-hexyl)-3,4-dihydropyrrolo[1,2-a]pyrazine-2,8(1H)-dicarboxamide] | 2
11 | CC(C)(C)NC(=O)N1CCn2c(c(C(N)=O)c(-c3cccc(C(F)(F)F)c3)c2C2CC2)C1 [Compound 16, N^2-tert-butyl-6-cyclo-propyl-7-[3-(trifluoromethyl)phenyl]-3,4-dihydropyrrolo[1,2-a]pyrazine-2,8(1H)-dicarboxamide] | 19 to 57
12 | CC(C)CNC(=O)N1CCn2c(Cl)c(-c3ccccc3)c(C(N)=O)c2C1 [Compound 59, 6-chloro-N^2-iso-butyl-7-phenyl-3,4-dihydropyrrolo[1,2-a]pyrazine-2,8(1H)-dicarboxamide] | 8 to 13
13 | CC(C)c1ccc(-c2c(C(N)=O)c3n(c2C2CC2)CCN(C(=O)NC(C)(C)C)C3)cc1 [Compound 13, N^2-tert-butyl-6-cyclo-propyl-7-[4-(iso-propyl)phenyl]-3,4-dihydropyrrolo[1,2-a]pyrazine-2,8(1H)-dicarboxamide] | 450 to 1000
14 | CC(C)(C)NC(=O)N1CCn2c(c(C(N)=O)c(-c3ccc(OCc4ccc(F)cc4)c(Cl)c3)c2C2CC2)C1 [Compound 42, N^2-tert-butyl-7-{3-chloro-4-[(4-fluorobenzyl)oxy]phenyl}-6-cyclo-propyl-3,4-dihydropyrrolo[1,2-a]pyrazine-2,8(1H)-dicarboxamide] | 16
15 | CC(C)CNC(=O)N1CCn2c(c(C(N)=O)c(-c3ccccc3)c2C2CC2)C1 [Compound 9, 6-cyclo-propyl-7-phenyl-N^2-(iso-butyl)-3,4-dihydropyrrolo[1,2-a]pyrazine-2,8(1H)-dicarboxamide] | 49
16 | NC(=O)c1c(-c2ccccc2)c(C2CC2)n2c1CN(C(=O)NC1CCCCC1)CC2 [Compound 49, N^2-cyclo-hexyl-6-cyclo-propyl-7-phenyl-3,4-dihydropyrrolo[1,2-a]pyrazine-2,8(1H)-dicarboxamide] | 17 to 28
17 | NC(=O)c1c(-c2ccccc2)c(C2CC2)n2c1CN(C(=O)NCC1CCCCC1)CC2 [Compound 50, N^2-(cyclo-hexylmethyl)-6-cyclo-propyl-7-phenyl-3,4-dihydropyrrolo[1,2-a]pyrazine-2,8(1H)-dicarboxamide] | 25
18 | CC(C)(C)NC(=O)N1CCn2c(c(C(N)=O)c(-c3ccccc3F)c2C2CC2)C1 [Compound 45, N^2-tert-butyl-6-cyclo-propyl-7-(2-fluorophenyl)-3,4-dihydropyrrolo[1,2-a]pyrazine-2,8(1H)-dicarboxamide] | 12
19 | CC(C)(C)NC(=O)N1CCn2c(c(C(N)=O)c(-c3cccc(F)c3)c2C2CC2)C1 [Compound 46, N^2-tert-butyl-6-cyclo-propyl-7-(3-fluorophenyl)-3,4-dihydropyrrolo[1,2-a]pyrazine-2,8(1H)-dicarboxamide] | 5 to 11
20 | CC(C)(C)NC(=O)N1CCn2c(c(C(N)=O)c(-c3cccc(C#N)c3)c2C2CC2)C1 [Compound 21, N^2-tert-butyl-7-(3-cyanophenyl)-6-cyclo-propyl-3,4-dihydropyrrolo[1,2-a]pyrazine-2,8(1H)-dicarboxamide] | 26 to 46
21 | CC(C)(C)CC(C)(C)NC(=O)N1CCn2c(c(C(N)=O)c(-c3ccccc3)c2C2CC2)C1 [Compound 52, 6-cyclo-propyl-7-phenyl-N^2-(2,4,4-trimethylpentan-2-yl)-3,4-dihydropyrrolo[1,2-a]pyrazine-2,8(1H)-dicarboxamide] | 45
22 | CC(C)(C)ON=C1CCC(NC(=O)N2CCn3c(Cl)c(-c4cccc(F)c4)c(C(N)=O)c3C2)CC1 (stereo not drawn) [Compound 87, trans-6-chloro-7-(3-fluorophenyl)-N^2-(4-tert-butyloxyimino-cyclohexyl)-3,4-dihydropyrrolo[1,2-a]pyrazine-2,8(1H)-dicarboxamide] | < 1
23 | CC1(O)CCC(NC(=O)N2CCn3c(Cl)c(-c4cccc(F)c4)c(C(N)=O)c3C2)CC1 (stereo not drawn) [Compound 84, trans-6-chloro-7-(3-fluorophenyl)-N^2-(4-hydroxy-4-methyl-cyclo-hexyl)-3,4-dihydropyrrolo[1,2-a]pyrazine-2,8(1H)-dicarboxamide] | 1
24 | NC(=O)c1c(-c2ccccc2)c(Cl)n2c1CN(C(=O)NC1CC3CCC1C3)CC2 (centres unmarked) [Compound 88, N^2-(bicyclo[2.2.1]hept-2-yl)-6-chloro-7-phenyl-3,4-dihydropyrrolo[1,2-a]pyrazine-2,8(1H)-dicarboxamide] | 3 to 5
25 | COc1ccc(-c2c(C(N)=O)c3n(c2C2CC2)CCN(C(=O)NC(C)C)C3)cc1 [Compound 8, 6-cyclo-propyl-7-(4-methoxyphenyl)-N^2-(iso-propyl)-3,4-dihydropyrrolo[1,2-a]pyrazine-2,8(1H)-dicarboxamide] | 221 to 273
26 | Cc1ccc(-c2c(C(N)=O)c3n(c2C2CC2)CCN(C(=O)NC(C)(C)C)C3)cc1 [Compound 12, N^2-tert-butyl-6-cyclo-propyl-7-(4-methylphenyl)-3,4-dihydropyrrolo[1,2-a]pyrazine-2,8(1H)-dicarboxamide] | 12
